From ChEMBL document CHEMBL1201862, “PubChem BioAssay data set” (2004)
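Five compound concentrations were applied to cells in 96-well plates for 48 hours; endpoints were derived by simple linear interpolation of the resulting dose-response curve. The concentration for 50% growth inhibition is given as GI50.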 Active and inactive are the calls of the source. Rule as the data show it: active = GI50 up to about 1.1 µM and inactive = higher.

Key:
Assay in all cases: growth of human tumour cells (NCI), 48 h
OVCAR-4 = test system: OVCAR-4
HT-29 = test system: HT-29
MDA-MB-231 = test system: MDA-MB-231
NCI-H522 = test system: NCI-H522
UACC-257 = test system: UACC-257
SK-MEL-5 = test system: SK-MEL-5
ACHN = test system: ACHN
RXF 393 = test system: RXF 393
MDA-MB-435 = test system: MDA-MB-435
NCI/ADR-RES = test system: NCI/ADR-RES
A498 = test system: A498
SF-295 = test system: SF-295
MOLT-4 = test system: MOLT-4
HCT-15 = test system: HCT-15
SF-539 = test system: SF-539
KM12 = test system: KM12
HOP-92 = test system: HOP-92
Hs-578T = test system: Hs-578T
IGROV-1 = test system: IGROV-1
OVCAR-5 = test system: OVCAR-5
COLO 205 = test system: COLO 205
DU-145 = test system: DU-145
786-0 = test system: 786-0
MDA-N = test system: MDA-N
SN12C = test system: SN12C
U-251 = test system: U-251
SNB-75 = test system: SNB-75
SK-OV-3 = test system: SK-OV-3
PC-3 = test system: PC-3
SW-620 = test system: SW-620
UACC-62 = test system: UACC-62
NCI-H460 = test system: NCI-H460
A549 = test system: A549
T47D = test system: T47D
K562 = test system: K562
RPMI-8226 = test system: RPMI-8226
HOP-62 = test system: HOP-62
MCF7 = test system: MCF7
TK-10 = test system: TK-10
HCC 2998 = test system: HCC 2998
LOX IMVI = test system: LOX IMVI
CCRF-CEM = test system: CCRF-CEM
SR = test system: SR
SF-268 = test system: SF-268
EKVX = test system: EKVX
M14 = test system: M14
UO-31 = test system: UO-31
SK-MEL-28 = test system: SK-MEL-28
OVCAR-3 = test system: OVCAR-3
HCT-116 = test system: HCT-116
CAKI-1 = test system: CAKI-1
OVCAR-8 = test system: OVCAR-8
SNB-19 = test system: SNB-19
NCI-H23 = test system: NCI-H23
Malme-3M = test system: Malme-3M
NCI-H226 = test system: NCI-H226
HL-60 = test system: HL-60
SK-MEL-2 = test system: SK-MEL-2
BT-549 = test system: BT-549

O=[N+]([O-])/C=C/COCc1cc2c(cc1Br)OCO2
GI50 (OVCAR-4): 18.6 µM (inactive) | GI50 (HT-29): 20.8 µM (inactive) | GI50 (MDA-MB-231): 18.9 µM (inactive) | GI50 (NCI-H522): 22 µM (inactive) | GI50 (UACC-257): 17.3 µM (inactive) | GI50 (SK-MEL-5): 20.2 µM (inactive) | GI50 (ACHN): 16.4 µM (inactive) | GI50 (RXF 393): 16.7 µM (inactive) | GI50 (MDA-MB-435): 13.9 µM (inactive) | GI50 (NCI/ADR-RES): 21.1 µM (inactive) | GI50 (A498): 27.6 µM (inactive) | GI50 (SF-295): 36.8 µM (inactive) | GI50 (MOLT-4): 48.3 µM (inactive) | GI50 (HCT-15): 18 µM | GI50 (SF-539): 27.9 µM (inactive) | GI50 (KM12): 19 µM (inactive) | GI50 (HOP-92): 23.2 µM (inactive) | GI50 (Hs-578T): 23.6 µM (inactive) | GI50 (IGROV-1): 29.8 µM (inactive) | GI50 (OVCAR-5): 16.7 µM (inactive) | GI50 (COLO 205): 23.1 µM (inactive) | GI50 (DU-145): 18.9 µM (inactive) | GI50 (786-0): 13.8 µM (inactive) | GI50 (MDA-N): 18.2 µM (inactive) | GI50 (SN12C): 18.6 µM (inactive) | GI50 (U-251): 17 µM (inactive) | GI50 (SNB-75): 17.4 µM (inactive) | GI50 (SK-OV-3): 43.1 µM (inactive) | GI50 (PC-3): 13 µM (inactive) | GI50 (SW-620): 16 µM (inactive) | GI50 (UACC-62): 16.5 µM (inactive) | GI50 (NCI-H460): 29.9 µM (inactive) | GI50 (A549): 21.7 µM (inactive) | GI50 (T47D): 16.7 µM (inactive) | GI50 (K562): 58.2 µM (inactive) | GI50 (RPMI-8226): 39.5 µM (inactive) | GI50 (HOP-62): 20.1 µM (inactive) | GI50 (MCF7): 17.2 µM (inactive) | GI50 (TK-10): 17.4 µM (inactive) | GI50 (HCC 2998): 16.7 µM (inactive) | GI50 (LOX IMVI): 33.8 µM (inactive) | GI50 (CCRF-CEM): 1.15 µM (inactive) | GI50 (SR): 23.4 µM (inactive) | GI50 (SF-268): 19.1 µM (inactive) | GI50 (EKVX): 20.1 µM (inactive) | GI50 (M14): 16.3 µM (inactive) | GI50 (UO-31): 17.2 µM (inactive) | GI50 (SK-MEL-28): 11.6 µM (inactive) | GI50 (OVCAR-3): 16.4 µM (inactive) | GI50 (HCT-116): 17.6 µM (inactive) | GI50 (CAKI-1): 20.6 µM (inactive) | GI50 (OVCAR-8): 31.9 µM (inactive)

Cc1cc(=O)oc2c(CNC(C)C(=O)O)c(O)ccc12 (stereo unspecified)
GI50 (OVCAR-4): > 100 µM (inactive) | GI50 (HT-29): > 100 µM (inactive) | GI50 (MDA-MB-231): > 100 µM (inactive) | GI50 (NCI-H522): > 100 µM (inactive) | GI50 (UACC-257): > 100 µM (inactive) | GI50 (SK-MEL-5): > 100 µM (inactive) | GI50 (ACHN): > 100 µM (inactive) | GI50 (SNB-19): > 100 µM (inactive) | GI50 (RXF 393): > 100 µM (inactive) | GI50 (MDA-MB-435): > 100 µM (inactive) | GI50 (NCI/ADR-RES): > 100 µM (inactive) | GI50 (NCI-H23): > 100 µM (inactive) | GI50 (SF-295): > 100 µM (inactive) | GI50 (MOLT-4): > 100 µM (inactive) | GI50 (HCT-15): > 100 µM | GI50 (SF-539): > 100 µM (inactive) | GI50 (KM12): > 100 µM (inactive) | GI50 (HOP-92): 65.3 µM (inactive) | GI50 (Hs-578T): > 100 µM (inactive) | GI50 (IGROV-1): > 100 µM (inactive) | GI50 (Malme-3M): > 100 µM (inactive) | GI50 (OVCAR-5): > 100 µM (inactive) | GI50 (COLO 205): > 100 µM (inactive) | GI50 (DU-145): > 100 µM (inactive) | GI50 (786-0): > 100 µM (inactive) | GI50 (MDA-N): > 100 µM (inactive) | GI50 (SN12C): > 100 µM (inactive) | GI50 (U-251): > 100 µM (inactive) | GI50 (SNB-75): > 100 µM (inactive) | GI50 (SK-OV-3): > 100 µM (inactive) | GI50 (PC-3): > 100 µM (inactive) | GI50 (SW-620): > 100 µM (inactive) | GI50 (UACC-62): > 100 µM (inactive) | GI50 (NCI-H460): > 100 µM (inactive) | GI50 (A549): > 100 µM (inactive) | GI50 (T47D): > 100 µM (inactive) | GI50 (K562): > 100 µM (inactive) | GI50 (RPMI-8226): > 100 µM (inactive) | GI50 (NCI-H226): > 100 µM (inactive) | GI50 (HOP-62): > 100 µM (inactive) | GI50 (MCF7): > 100 µM (inactive) | GI50 (HL-60): > 100 µM (inactive) | GI50 (TK-10): 95.7 µM (inactive) | GI50 (HCC 2998): > 100 µM (inactive) | GI50 (LOX IMVI): > 100 µM (inactive) | GI50 (CCRF-CEM): > 100 µM (inactive) | GI50 (SR): > 100 µM (inactive) | GI50 (SF-268): > 100 µM (inactive) | GI50 (EKVX): > 100 µM (inactive) | GI50 (M14): > 100 µM (inactive) | GI50 (UO-31): 36.9 µM (inactive) | GI50 (SK-MEL-28): > 100 µM (inactive) | GI50 (SK-MEL-2): > 100 µM (inactive) | GI50 (OVCAR-3): > 100 µM (inactive) | GI50 (HCT-116): 71.4 µM (inactive) | GI50 (CAKI-1): > 100 µM (inactive) | GI50 (OVCAR-8): > 100 µM (inactive)

COc1cc2c(cc1NC(=O)c1ccccc1)c1c(n2S(=O)(=O)c2ccccc2)CCN(S(=O)(=O)c2ccccc2)C1
GI50 (OVCAR-4): > 100 µM (inactive) | GI50 (HT-29): > 100 µM (inactive) | GI50 (UACC-257): > 100 µM (inactive) | GI50 (SK-MEL-5): > 100 µM (inactive) | GI50 (ACHN): > 100 µM (inactive) | GI50 (SNB-19): > 100 µM (inactive) | GI50 (RXF 393): > 100 µM (inactive) | GI50 (MDA-MB-435): > 100 µM (inactive) | GI50 (NCI/ADR-RES): > 100 µM (inactive) | GI50 (A498): > 100 µM (inactive) | GI50 (NCI-H23): > 100 µM (inactive) | GI50 (MOLT-4): > 100 µM (inactive) | GI50 (HCT-15): > 100 µM | GI50 (KM12): > 100 µM (inactive) | GI50 (HOP-92): > 100 µM (inactive) | GI50 (Hs-578T): > 100 µM (inactive) | GI50 (IGROV-1): > 100 µM (inactive) | GI50 (OVCAR-5): > 100 µM (inactive) | GI50 (COLO 205): > 100 µM (inactive) | GI50 (DU-145): > 100 µM (inactive) | GI50 (786-0): > 100 µM (inactive) | GI50 (U-251): > 100 µM (inactive) | GI50 (SNB-75): > 100 µM (inactive) | GI50 (SK-OV-3): > 100 µM (inactive) | GI50 (PC-3): > 100 µM (inactive) | GI50 (SW-620): > 100 µM (inactive) | GI50 (UACC-62): > 100 µM (inactive) | GI50 (NCI-H460): > 100 µM (inactive) | GI50 (A549): > 100 µM (inactive) | GI50 (T47D): 22.1 µM (inactive) | GI50 (K562): > 100 µM (inactive) | GI50 (RPMI-8226): > 100 µM (inactive) | GI50 (NCI-H226): > 100 µM (inactive) | GI50 (HOP-62): > 100 µM (inactive) | GI50 (HL-60): > 100 µM (inactive) | GI50 (HCC 2998): > 100 µM (inactive) | GI50 (LOX IMVI): > 100 µM (inactive) | GI50 (CCRF-CEM): > 100 µM (inactive) | GI50 (SR): > 100 µM (inactive) | GI50 (SF-268): > 100 µM (inactive) | GI50 (M14): > 100 µM (inactive) | GI50 (BT-549): > 100 µM (inactive) | GI50 (SK-MEL-28): > 100 µM (inactive) | GI50 (SK-MEL-2): > 100 µM (inactive) | GI50 (OVCAR-3): > 100 µM (inactive) | GI50 (HCT-116): > 100 µM (inactive) | GI50 (OVCAR-8): > 100 µM (inactive)
